Results published in US20250134907A1, “FUSED DIAZEPINES AS AGONISTS OF THE INSULIN-LIKE 3 (INSL3) PEPTIDE RECEPTOR RXFP2 AND METHODS OF USE THEREOF” (The United States of America,as represented by the …, priority 2022, published 2025).

Biological target: T1, RXFP2 (Homo sapiens, UniProt Q8WXD0)
T1 construct: expressed in transfected cells
Assay: HTRF cAMP assay in HEK293T cells stably expressing RXFP2 (HEK-RXFP2)
Assay type: cell-based
Conditions: IBMX 200 μM; for % EFF vs. 1 nM INSL3 (a): condition (a): 20,000 cells/well, maximum cAMP response normalized to 1 nM INSL3 response; for EC50 / % EFF vs. 1 nM INSL3 (b): condition (b): 10,000 cells/well; for % EFF vs. 1 nM INSL3 (b): normalized to 1 nM INSL3 cAMP response
Experimental: Compound efficacy and EC50 were determined by measuring cAMP induction in vitro. HEK293T cells stably expressing RXFP2 (HEK-RXFP2) produce cAMP when RXFP2 is activated, which can be measured in an antibody-based immunoassay utilizing a fluorescent readout (cAMP Gs HiRange Kit, PerkinElmer, Waltham, MA). HEK-RXFP2 cells were seeded in 96-well plates in serum-free DMEM and incubated overnight at 37° C., 5% CO2. Plates were then treated with a compound titration up to 25 μM or INSL3 control, in the presence of isobutylmethylxanthine phosphodiesterase inhibitor (IBMX) at 200 μM to amplify the cAMP signal, for 1 hour at 37° C., 5% CO2 before being processed as per kit instructions. Table 7 lists the efficacy and EC50 of compounds tested under different experimental conditions. […] In condition (a), 20,000 cells were seeded per well in the 96 well plate, and efficacy was determined by normalizing the maximum compound cAMP response to the 1 nM INSL3 cAMP response (% Efficacy 1 nM INSL3 (a)). In condition (b), 10,000 cells were seeded per well, and compound response was normalized to the 1 nM INSL3 cAMP response (% Efficacy 1 nM INSL3 (b)). In condition (c), 7,500 cells were seeded per well, compound response was normalized to the 100 nM INSL3 cAMP response, and IBMX was omitted (% Efficacy 100 nM INSL3 (c)). A range is given when compounds were tested multiple times. Where compounds were tested under multiple experimental conditions, the EC50 listed for the corresponding condition is marked (a) through (c) to correlate. When EC50 could not be calculated from the dose-response curve, EC50 is listed as not determined (ND).

T1 sequence (Q8WXD0 whole entry): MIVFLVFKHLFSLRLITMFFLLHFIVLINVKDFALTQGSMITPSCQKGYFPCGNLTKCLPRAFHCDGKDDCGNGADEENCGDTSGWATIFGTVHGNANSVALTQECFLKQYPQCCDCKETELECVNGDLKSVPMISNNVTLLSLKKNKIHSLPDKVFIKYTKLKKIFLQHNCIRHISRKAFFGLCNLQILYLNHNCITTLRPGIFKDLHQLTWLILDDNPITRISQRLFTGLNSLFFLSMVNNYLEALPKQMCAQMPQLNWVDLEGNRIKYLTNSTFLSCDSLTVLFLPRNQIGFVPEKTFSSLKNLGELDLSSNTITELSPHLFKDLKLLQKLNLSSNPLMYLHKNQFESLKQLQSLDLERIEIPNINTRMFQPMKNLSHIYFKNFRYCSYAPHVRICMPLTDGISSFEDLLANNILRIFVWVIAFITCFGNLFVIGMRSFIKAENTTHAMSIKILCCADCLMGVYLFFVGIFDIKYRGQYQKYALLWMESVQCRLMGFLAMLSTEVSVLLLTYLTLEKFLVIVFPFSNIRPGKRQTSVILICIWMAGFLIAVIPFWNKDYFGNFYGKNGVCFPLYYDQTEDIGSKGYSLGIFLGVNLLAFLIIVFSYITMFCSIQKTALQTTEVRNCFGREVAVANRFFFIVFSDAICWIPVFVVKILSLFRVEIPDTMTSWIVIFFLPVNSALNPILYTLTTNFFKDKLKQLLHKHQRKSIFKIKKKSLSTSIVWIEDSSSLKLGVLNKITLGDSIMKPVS

Row | Compound | % EFF vs. 1 nM INSL3 (a) [%] | EC50 [nM] | % EFF vs. 1 nM INSL3 (b)
1 | O=C1Nc2ccc(-c3cccc(C(F)(F)F)c3)cc2C(=O)N2CCN(C(=O)COc3ccc(OC(F)(F)F)cc3Cl)C[C@H]12 [Example 118, (R)-2-(2-(2-chloro-4-(trifluoromethoxy)phenoxy)acetyl)-8-(3-(trifluoromethyl)phenyl)-1,3,4,12a-tetrahydrobenzo[e]pyrazino[1,2-a][1,4]diazepine-6,12 (2H, 11H)-dione] | 43.71 |  | 
2 | Cc1cc(OC(F)(F)F)ccc1OCC(=O)N1CCN2C(=O)c3cc(-c4cccc(C(F)(F)F)c4)ccc3NC(=O)[C@@H]2C1 [Example 120, (S)-2-(2-(2-methyl-4-(trifluoromethoxy)phenoxy)acetyl)-8-(3-(trifluoromethyl)phenyl)-1,3,4,12a-tetrahydrobenzo[e]pyrazino[1,2-a][1,4]diazepine-6,12 (2H, 11H)-dione] |  | 8.6 | 70.76%
3 | Cc1cc(OC(F)(F)F)ccc1OCC(=O)N1CCN2C(=O)c3cc(-c4cccc(C(F)(F)F)c4)ccc3NC(=O)[C@H]2C1 [Example 121, (R)-2-(2-(2-methyl-4-(trifluoromethoxy)phenoxy)acetyl)-8-(3-(trifluoromethyl)phenyl)-1,3,4,12a-tetrahydrobenzo[e]pyrazino[1,2-a][1,4]diazepine-6,12 (2H, 11H)-dione] | 28.28 |  | 
4 | Cc1cc(OC(F)(F)F)ccc1OCC(=O)N1CCN2C(=O)c3cc(-c4cc(F)cc(C(F)(F)F)c4)ccc3NC(=O)[C@@H]2C1 [Example 141, (S)-8-(3-fluoro-5-(trifluoromethyl)phenyl)-2-(2-(2-methyl-4-(trifluoromethoxy)phenoxy)acetyl)-1,3,4,12a-tetrahydrobenzo[e]pyrazino[1,2-a][1,4]diazepine-6,12 (2H, 11H)-dione] |  | 36 to 54.5 | 95.53-115.85%
5 | O=C1Nc2ccc(-c3cccc(C(F)(F)F)c3)cc2C(=O)N2CCN(C(=O)COc3ccc(C(F)(F)F)c(F)c3F)C[C@@H]12 [Example 146, (S)-2-(2-(2,3-difluoro-4-(trifluoromethyl)phenoxy)acetyl)-8-(3-(trifluoromethyl)phenyl)-1,3,4,12a-tetrahydrobenzo[e]pyrazino[1,2-a][1,4]diazepine-6,12 (2H, 11H)-dione] |  |  | 47.43%
6 | Cc1cc(-c2ccc3c(c2)C(=O)N2CCN(C(=O)COc4ccc(OC(F)(F)F)cc4Cl)C[C@H]2C(=O)N3)cc(C(F)(F)F)c1 [Example 150, (S)-2-(2-(2-chloro-4-(trifluoromethoxy)phenoxy)acetyl)-8-(3-methyl-5-(trifluoromethyl)phenyl)-1,3,4,12a-tetrahydrobenzo[e]pyrazino[1,2-a][1,4]diazepine-6,12 (2H, 11H)-dione] |  | 22.2 | 103.32%
7 | Cc1cc(-c2ccc3c(c2)C(=O)N2CCN(C(=O)COc4ccc(OC(F)(F)F)cc4Cl)C[C@H]2CN3)cc(C(F)(F)F)c1.O=C(O)C(F)(F)F [Example 151, (R)-2-(2-(2-chloro-4-(trifluoromethoxy)phenoxy)acetyl)-8-(3-methyl-5-(trifluoromethyl)phenyl)-1,3,4,11,12,12a-hexahydrobenzo[e]pyrazino[1,2-a][1,4]diazepin-6 (2H)-one-2,2,2-trifluoroacetate] |  |  | 0.85%
8 | O=C1Nc2ccc(-c3cc(C(F)(F)F)cc(C(F)(F)F)c3)cc2C(=O)N2CCN(C(=O)COc3ccc(OC(F)(F)F)cc3Cl)C[C@@H]12 [Example 157, (S)-8-(3,5-Bis(trifluoromethyl)phenyl)-2-(2-(2-chloro-4-(trifluoromethoxy)phenoxy)acetyl)-1,3,4,12a-tetrahydrobenzo[e]pyrazino[1,2-a][1,4]diazepine-6,12 (2H, 11H)-dione] |  | 39.1 | 108.89%
9 | O=C1Nc2ccc(-c3cc(Cl)cc(C(F)(F)F)c3)cc2C(=O)N2CCN(C(=O)COc3ccc(OC(F)(F)F)cc3Br)C[C@@H]12 [Example 162, (S)-2-(2-(2-Bromo-4-(trifluoromethoxy)phenoxy)acetyl)-8-(3-chloro-5-(trifluoromethyl)phenyl)-1,3,4,12a-tetrahydrobenzo[e]pyrazino[1,2-a][1,4]diazepine-6,12 (2H, 11H)-dione] |  | 121 | 130.93%
10 | O=C1Nc2ccc(-c3cc(Cl)cc(C(F)(F)F)c3)cc2C(=O)N2CCN(C(=O)COc3ccc(OC(F)(F)F)cc3Cl)C[C@@H]12 [Example 163, (S)-2-(2-(2-chloro-4-(trifluoromethoxy)phenoxy)acetyl)-8-(3-chloro-5-(trifluoromethyl)phenyl)-1,3,4,12a-tetrahydrobenzo[e]pyrazino[1,2-a][1,4]diazepine-6,12 (2H, 11H)-dione] |  |  | 114.25%
11 | Cc1cc(OC(F)(F)F)ccc1OCC(=O)N1CCN2C(=O)c3cc(-c4cc(Cl)cc(C(F)(F)F)c4)ccc3NC(=O)[C@@H]2C1 [Example 164, (S)-8-(3-chloro-5-(trifluoromethyl)phenyl)-2-(2-(2-methyl-4-(trifluoromethoxy)phenoxy)acetyl)-1,3,4,12a-tetrahydrobenzo[e]pyrazino[1,2-a][1,4]diazepine-6,12 (2H, 11H)-dione] |  |  | 126.02%
12 | Cc1cc(OC(F)F)ccc1OCC(=O)N1CCN2C(=O)c3cc(-c4cccc(C(F)(F)F)c4)ccc3NC(=O)[C@@H]2C1 [Example 166, (S)-2-(2-(4-(difluoromethoxy)-2-methylphenoxy)acetyl)-8-(3-(trifluoromethyl)phenyl)-1,3,4,12a-tetrahydrobenzo[e]pyrazino[1,2-a][1,4]diazepine-6,12 (2H, 11H)-dione] |  | 236 | 132.67%
13 | Cc1cc(OC(F)F)ccc1OCC(=O)N1CCN2C(=O)c3cc(-c4cc(C(F)(F)F)cc(C(F)(F)F)c4)ccc3NC(=O)[C@@H]2C1 [Example 167, (S)-2-(2-(4-(difluoromethoxy)-2-methylphenoxy)acetyl)-8-(3-(trifluoromethyl)-5-(trifluoromethyl)phenyl)-1,3,4,12a-tetrahydrobenzo[e]pyrazino[1,2-a][1,4]diazepine-6,12 (2H, 11H)-dione] |  | 142 | 113.26%

Results, then the compound that gave them:

Row | % EFF vs. 1 nM INSL3 (a) [%] | EC50 [nM] | % EFF vs. 1 nM INSL3 (b) | Compound
14 |  | 12 | 84.99% | O=C1Nc2ccc(-c3cc(C(F)(F)F)ccc3F)cc2C(=O)N2CCN(C(=O)COc3ccc(OC(F)(F)F)cc3Cl)C[C@@H]12 [Example 127, (S)-2-(2-(2-chloro-4-(trifluoromethoxy)phenoxy)acetyl)-8-(2-fluoro-5-(trifluoromethyl)phenyl)-1,3,4,12a-tetrahydrobenzo[e]pyrazino[1,2-a][1,4]diazepine-6,12 (2H, 11H)-dione]
15 |  |  | 54.37% | O=C1Nc2ccc(-c3cc(C(F)(F)F)ccc3F)cc2C(=O)N2CCN(C(=O)COc3ccc(OC(F)(F)F)cc3Cl)C[C@H]12 [Example 130, (R)-2-(2-(2-chloro-4-(trifluoromethoxy)phenoxy)acetyl)-8-(2-fluoro-5-(trifluoromethyl)phenyl)-1,3,4,12a-tetrahydrobenzo[e]pyrazino[1,2-a][1,4]diazepine-6,12 (2H, 11H)-dione]
16 |  |  | 68.09% | O=C1Nc2ccc(-c3cc(C(F)(F)F)ccc3F)cc2C(=O)N2CCN(C(=O)COc3ccc(C(F)(F)F)cc3Cl)C[C@@H]12 [Example 132, (S)-2-(2-(2-chloro-4-(trifluoromethyl)phenoxy)acetyl)-8-(2-fluoro-5-(trifluoromethyl)phenyl)-1,3,4,12a-tetrahydrobenzo[e]pyrazino[1,2-a][1,4]diazepine-6,12 (2H, 11H)-dione]
17 |  | 67 to 89.4 | 92.5-107.57% | Cc1ccc(C(F)(F)F)cc1-c1ccc2c(c1)C(=O)N1CCN(C(=O)COc3ccc(OC(F)(F)F)cc3Cl)C[C@H]1C(=O)N2 [Example 136, (S)-2-(2-(2-Chloro-4-(trifluoromethoxy)phenoxy)acetyl)-8-(2-methyl-5-(trifluoromethyl)phenyl)-1,3,4,12a-tetrahydrobenzo[e]pyrazino[1,2-a][1,4]diazepine-6,12 (2H, 11H)-dione]
18 |  |  | 53.62% | Cc1ccc(C(F)(F)F)cc1-c1ccc2c(c1)C(=O)N1CCN(C(=O)COc3ccc(C(F)(F)F)cc3Cl)C[C@H]1C(=O)N2 [Example 137, (S)-2-(2-(2-chloro-4-(trifluoromethyl)phenoxy)acetyl)-8-(2-methyl-5-(trifluoromethyl)phenyl)-1,3,4,12a-tetrahydrobenzo[e]pyrazino[1,2-a][1,4]diazepine-6,12 (2H, 11H)-dione]
19 |  | 48 | 80.32% | O=C1Nc2ccc(-c3cc(F)cc(C(F)(F)F)c3)cc2C(=O)N2CCN(C(=O)COc3ccc(C(F)(F)F)cc3Cl)C[C@@H]12 [Example 142, (S)-2-(2-(2-chloro-4-(trifluoromethyl)phenoxy)acetyl)-8-(3-fluoro-5-(trifluoromethyl)phenyl)-1,3,4,12a-tetrahydrobenzo[e]pyrazino[1,2-a][1,4]diazepine-6,12 (2H, 11H)-dione]
